Type in all cases: cell-based
Series [1] is described as follows: (§1) Dose that required to inhibit cell growth for cytotoxicity against HEp-2 cells in culture. Particulars: human, HEp-2 cells; read-out: LD50 (the source's name).
Series [2] is described as follows: Dose that required to inhibit cell growth for cytotoxicity against human nasopharyngeal carcinoma (KB) cells in culture. Particulars: read-out: LD50 (the source's name).
The test system of the next series is HEp-2. Described as §1. Particulars: human, hep-2.

SMILES strings stand for the structures. Converted amounts (≈) assume the structure as drawn.

For `CC(=O)[C@H]1CC[C@H]2[C@@H]3CC[C@H]4CC(=O)CC[C@]4(C)[C@H]3CC[C@]12C`, in series [1], the CC50 is 0.84 µg/mL (≈ 2.65 µM).

Regarding `C=C1CC2(CCC3(C)[C@@H](CC[C@H]4[C@@H]5CCC(=O)C5(C)CC[C@@H]43)C2)OC1=O` (some centres undefined), the CC50 in series [1] came out at 0.58 µg/mL (≈ 1.63 µM).

On to `C[C@]12CC[C@H]3[C@@H](CCC4=CC(=O)CC[C@@]43C)[C@@H]1CC[C@@H]2O` [TESTOSTERONE], for which the GI50 in series [2] was found to be 1.27 µg/mL (≈ 4.4 µM). In series [1], the CC50 is 0.44 µg/mL (≈ 1.53 µM). In the series on HEp-2, this compound returned an LD50 of 0.58 µg/mL.

As for `C=C1CC2C3CC[C@H]4CC(O)CCC4(C)C3CCC2(C)OC1=O` (some centres undefined), the GI50 in series [2] was found to be 1 µg/mL (≈ 3.14 µM).

On to `C=C1CC2(C)C3CCC4(C)C(OC(C)=O)CCC4C3CC[C@H]2OC1=O` (some centres undefined), for which the GI50 in series [2] is 0.72 µg/mL (≈ 2.08 µM).

Take `C=C1CC2(C)C3CCC4(C)C(CCCCCCCC)CCC4C3CC[C@H]2OC1=O` (some centres undefined): the GI50 in series [2] stood at 0.82 µg/mL (≈ 2.05 µM).

As to `C=C1CC2(C)C3CCC4(C)C(O)CCC4C3CC[C@H]2OC1=O` (some centres undefined), the GI50 in series [2] stood at 0.76 µg/mL (≈ 2.5 µM).

For the origin of these results see ChEMBL document CHEMBL1121531, “Steroidal alpha-methylene delta-lactones as potential antitumor agents” (J Med Chem, 1980).
